This is an account of results in patent publication US4654348A, “Pyrazolo[4,3-d]pyrimidine derivative, process for its production, antihyperlipidemic agent containing it, its intermediate, and process for the production of the intermediate” (Nissan Chemical Industries Ltd., priority 1984, dated 1987).

Data set [1] has as its system emulsion-induced hyperlipidemic rats. As to the kind of experiment: Test 1: antihyperlipidemic activity in emulsion-induced hyperlipidemic rats (serum Chol, HDL-Chol, liver weight). It counts as in vivo, male S.D. rats. The note with it: 3 days, vs control; for inhibition in vivo at 300 mg/kg: read-out: Reduction rate of serum Chol. Here is the method:
The antihyperlipidemic activity in emulsion-induced hyperlipidemic rats:
Male S.D. rats weighing 80-90 g (4 weeks old) were used. They were divided into groups of 5 to 6 rats each. The test compounds suspended in 0.5% CMC-Na(carboxymethyl cellulose sodium salt) were given to the rats in a daily dose of 4 ml/kg (i.e. 300 mg/kg of the test compounds) via stomach tube every 10:00 a.m. After 30 min., lipids emulsion having the following composition was orally given to the rats in an amount of 2.5 ml per rat.
Cholic acid sodium salt 10.0 g
During the experimental period of 3 days, the rats were fed on a standard commercial diet and water ad libitum. […] The total cholesterol and HDL cholesterol were measured.
The weight of the liver was measured. To the control group, only the aqueous CMC-Na solution and the lipids emulsion were given.
The fractionation of lipoproteins was conducted by a dextran sulfate-MgCl2 precipitation method.
Cholesterol in serum was measured by means of a cholesterol measuring kit (Cholesterol C-Test Wako, manufactured by Wako Junyaku Co., Ltd.), and cholesterol in HDL was measured by means of NC Hi-Set, manufactured by Nippon Chemiphar Co., Ltd.
Further, the reduction rate of Chol was calculated by the following equation. [formula] where A is the amount of serum Chol (mg/dl) of the control group, and B is the amount of serum Chol (mg/dl) of the group to which the therapeutic agent was administered.
Likewise, the increase rate of HDL-Chol was calculated by the following equation. [formula] where C is the amount of serum HDL-Chol (mg/dl) of the control group, and D is the amount of serum HDL-Chol (mg/dl) of the group to which the therapeutic agent was administered.
The degree of hepatomegaly (i.e. the change rate of the liver weight) was calculated by the following equation. [formula] where E is the liver weight (g) per 100 g of the body weight of the control group, and F is the liver weight (g) per 100 g of the body weight of the group to which the therapeutic agent was administered.

The nature of data set [2]: Test 2: Acute toxicity (mortality after seven days). It counts as in vivo. The note with it: mouse, in vivo, po, 8000 mg/kg p.o., male ddY mice. Here is the method: The test compounds suspended in 0.5% CMC-Na were administered p.o. to male ddY mice. The acute toxicity was determined based on the mortality after seven days. In respect of the compounds of Examples 1, 9, 10 and 11 of the present invention, the mortality was 0% even at a dose of as high as 8000 mg/kg by oral administration.

[3] abbreviates: Rattus norvegicus, po, 72 h, 300 mg/kg/day via stomach tube.

The mortality is the share of the test organisms that died. Consider `CCCCCCCCCCCCCCCCOc1c2ncnc(SCC(=O)OCC)c2nn1C` [Example 1, 2-Methyl-3-n-hexadecyloxy-7-ethoxycarbonylmethylthio-pyrazolo[4,3-d]pyrimidine], for which the change in vivo at 300 mg/kg in data set [1] (Rattus norvegicus, po, 72 h, 300 mg/kg/day via stomach tube, read-out: Increase rate of serum HDL-Chol) is 42%. Moreover, in data set [1] (setting [3]), the inhibition in vivo at 300 mg/kg was 58%. For the same compound, the “Degree of hepatomegaly (change rate of the liver weight)” value in data set [1] (liver weight per 100 g body weight, 300 mg/kg/day) was “+8%”. In addition, the mortality at 168 h in data set [2] stood at 0%.

In the case of `CCOC(=O)CSc1ncnc2c(OCCC(C)CCCC(C)CCCC(C)C)n(C)nc12` (stereo not shown) [Example 41, 2-Methyl-3-(3,7,11-trimethyl-dodecyloxy)-7-ethoxycarbonylmethylthio-pyrazolo[4,3-d]pyrimidine], the inhibition in vivo at 300 mg/kg in data set [1] (setting [3]) is 48%.

Turning to `CCCCCCCCOc1c2ncnc(SCC(=O)OCC)c2nn1C` [Example 42, 2-Methyl-3-n-octyloxy-7-ethoxycarbonylmethylthio-pyrazolo[4,3-d]pyrimidine], the inhibition in vivo at 300 mg/kg in data set [1] (setting [3]) was found to be 32%.

In the case of `CCCCCCCCCCCCCCC(C)Oc1c2ncnc(SCC(=O)OCC)c2nn1C` (stereo not shown) [Example 43, 2-Methyl-3-(1-methylpentadecyloxy)-7-ethoxycarbonylmethylthio-pyrazolo[4,3-d]pyrimidine], in data set [1] (setting [3]), the inhibition in vivo at 300 mg/kg was found to be 28%.

On to `CCCCCCCCC#CCCCCCCCCOc1c2ncnc(SCC(=O)OCC)c2nn1C` [Example 44, 2-Methyl-3-(9-octadecynyloxy)-7-ethoxycarbonylmethylthio-pyrazolo[4,3-d]pyrimidine], for which the inhibition in vivo at 300 mg/kg in data set [1] (setting [3]) came to 39%.

For the compound `C=CCCCCCCCCOc1c2ncnc(SCC(=O)OCC)c2nn1C` [Example 45, 2-methyl-3-(9-decenyloxy)-7-ethoxycarbonylmethylthio-pyrazolo[4,3-d]pyrimidine], the inhibition in vivo at 300 mg/kg in data set [1] (setting [3]) was found to be 22%.

As for `CCOC(=O)CSc1ncnc2c(OCCCC(C)=O)n(C)nc12` [Example 46, 2-Methyl-3-(4-oxo-pentyloxy)-7-ethoxycarbonymethylthio-pyrazolo[4,3-d]pyrimidine], in data set [1] (setting [3]), the inhibition in vivo at 300 mg/kg was 11%.

As for `CCC=CCCOc1c2ncnc(SCC(=O)OCC)c2nn1-c1ccccc1` [Example 47, 2-Phenyl-3-(3-hexenyloxy)-7-ethoxycarbonylmethylthio-pyrazolo[4,3-d]pyrimidine], the inhibition in vivo at 300 mg/kg in data set [1] (setting [3]) came to 10%.

`CCOC(=O)CSc1ncnc2c(OCCOCc3ccc(C(C)(C)C)cc3)n(-c3ccccc3)nc12` [Example 48, 2-Phenyl-3-[2-(4-t-butylbenzyloxy)ethyloxy]-7-ethoxycarbonylmethylthio-pyrazolo[4,3-d]pyrimidine]: the inhibition in vivo at 300 mg/kg in data set [1] (setting [3]) came to 34%.

As for `CCCCSCCOc1c2ncnc(SCC(=O)OCC)c2nn1-c1ccccc1` [Example 49, 2-Phenyl-3-(3-thia-heptyloxy)-7-ethoxycarbonylmethylthio-pyrazolo[4,3-d]pyrimidine], the inhibition in vivo at 300 mg/kg in data set [1] (setting [3]) is 14%.

Consider `CCCCCCCC/C=C\CCCCCCCCOc1c2ncnc(SCC(=O)OCC)c2nn1-c1ccccc1` [Example 50, 2-Phenyl-3-oleyloxy-7-ethoxycarbonylmethylthio-pyrazolo[4,3-d]pyrimidine], for which the inhibition in vivo at 300 mg/kg in data set [1] (setting [3]) turned out to be 35%.

Regarding `C=CCCCCCCCCOc1c2ncnc(SCC(=O)OCC)c2nn1-c1ccccc1` [Example 51, 2-Phenyl-3-(9-decenyloxy)-7-ethoxycarbonylmethylthio-pyrazolo[4,3-d]pyrimidine], the inhibition in vivo at 300 mg/kg in data set [1] (setting [3]) worked out at 58%.

For the compound `CCCCCCCCCCCCCCCCOc1c2ncnc(SCC(=O)OCC)c2nn1-c1ccccc1` [Example 52, 2-Phenyl-3-n-hexadecyloxy-7-ethoxycarbonylmethylthio-pyrazolo[4,3-d]pyrimidine], in data set [1] (setting [3]), the inhibition in vivo at 300 mg/kg was 30%.

Regarding `CCCC=CCCOc1c2ncnc(SCC(=O)OCC)c2nn1-c1ccccc1` [Example 53, 2-Phenyl-3-(3-heptenyloxy)-7-ethoxycarbonylmethylthio-pyrazolo[4,3-d]pyrimidine], in data set [1] (setting [3]), the inhibition in vivo at 300 mg/kg was 11%.

For `CCCCC/C=C\C/C=C\CCCCCCCCOc1c2ncnc(SCC(=O)OC)c2nn1C` [Example 54, 2-Methyl-3-linoleyloxy-7-methoxycarbonylmethylthio-pyrazolo[4,3-d]pyrimidine], in data set [1] (setting [3]), the inhibition in vivo at 300 mg/kg came out at 79%.

Turning to `CCCCC/C=C\C/C=C\CCCCCCCCOc1c2ncnc(SCCCCCC)c2nn1C` [Example 55, 2-Methyl-3-linoleyloxy-7-n-hexylthio-pyrazolo[4,3-d]pyrimidine], the inhibition in vivo at 300 mg/kg in data set [1] (setting [3]) was 58%.

As for `CCCCC/C=C\C/C=C\CCCCCCCCOc1c2ncnc(SCC(=O)OCCCC)c2nn1C` [Example 56, 2-Methyl-3-linoleyloxy-7-n-butoxycarbonylmethylthio-pyrazolo[4,3-d]pyrimidine], the inhibition in vivo at 300 mg/kg in data set [1] (setting [3]) came out at 60%.

For the compound `CCCCC/C=C\C/C=C\CCCCCCCCOc1c2ncnc(SCC#N)c2nn1C` [Example 57, 2-Methyl-3-linoleyloxy-7-cyanomethylthio-pyrazolo[4,3-d]pyrimidine], the inhibition in vivo at 300 mg/kg in data set [1] (setting [3]) was found to be 61%.

As to `CCCCC/C=C\C/C=C\CCCCCCCCOc1c2ncnc(SC(C)C(=O)OCC)c2nn1C` (stereo not shown) [Example 58, 2-Methyl-3-linoleyloxy-7-(1-ethoxycarbonylethylthio)-pyrazolo[4,3-d]pyrimidine], the inhibition in vivo at 300 mg/kg in data set [1] (setting [3]) came out at 32%.

Regarding `CCCCC/C=C\C/C=C\CCCCCCCCOc1c2ncnc(SCCCC(=O)OCC)c2nn1C` [Example 59, 2-Methyl-3-linoleyloxy-7-[3-(ethoxycarbonyl)propylthio]-pyrazolo[4,3-d]pyrimidine], in data set [1] (setting [3]), the inhibition in vivo at 300 mg/kg was 68%.

On to `CCCCC/C=C\C/C=C\CCCCCCCCOc1c2ncnc(SCCCCC(=O)OCC)c2nn1C` [Example 60, 2-Methyl-3-linoleyloxy-7-[4-(ethoxycarbonyl)butylthio]-pyrazolo[4,3-d]pyrimidine], for which, in data set [1] (setting [3]), the inhibition in vivo at 300 mg/kg was 22%.

For `CCCCC/C=C\C/C=C\CCCCCCCCOc1c2ncnc(SCCCCCCCCCCC(=O)OCC)c2nn1C` [Example 61], the inhibition in vivo at 300 mg/kg in data set [1] (setting [3]) turned out to be 35%.

For the compound `CCCCC/C=C\C/C=C\CCCCCCCCOc1c2ncnc(SCc3ccccc3)c2nn1C` [Example 62, 2-Methyl-linoleyloxy-7-benzylthio-pyrazolo[4,3-d]pyrimidine], the inhibition in vivo at 300 mg/kg in data set [1] (setting [3]) amounted to 17%.

Consider `CCCCC/C=C\C/C=C\CCCCCCCCOc1c2ncnc(SC(C(=O)OCC)C(C)C)c2nn1C` (stereo not shown) [Example 63, 2-Methyl-3-linoleyloxy-7-(1-ethoxycarbonyl-2-methylpropylthio)pyrazolo[4,3-d]pyrimidine], for which, in data set [1] (setting [3]), the inhibition in vivo at 300 mg/kg is 39%.

Consider `C=CCSc1ncnc2c(OCCCCCCCC/C=C\C/C=C\CCCCC)n(C)nc12` [Example 64, 2-Methyl-3-linoleyloxy-7-allylthio-pyrazolo[4,3-d]pyrimidine], for which the inhibition in vivo at 300 mg/kg in data set [1] (setting [3]) amounted to 12%.

Take `CCCCCCCC/C=C\CCCCCCCCCCCCOc1c2ncnc(SCC(=O)OCC)c2nn1C` [Example 69, 2-Methyl-3-erucyloxy-7-ethoxycarbonylmethylthio-pyrazolo[4,3-d]pyrimidine]: the inhibition in vivo at 300 mg/kg in data set [1] (setting [3]) turned out to be 59%.

Consider `CCCCCCCC/C=C/CCCCCCCCOc1c2ncnc(SCC(=O)OCC)c2nn1C` [Example 70, 2-Methyl-3-elaidyloxy-7-ethoxycarbonylmethylthio-pyrazolo[4,3-d]pyrimidine], for which, in data set [1] (setting [3]), the inhibition in vivo at 300 mg/kg was 63%.

For the compound `CCCCCCCCCCC/C=C\CCCCCOc1c2ncnc(SCC(=O)OCC)c2nn1C` [Example 71, 2-Methyl-3-petroselinyloxy-7-ethoxycarbonylmethylthio-pyrazolo[4,3-d]pyrimidine], the inhibition in vivo at 300 mg/kg in data set [1] (setting [3]) was 64%.

With `CCCCCC/C=C/CCCCCCCCCCOc1c2ncnc(SCC(=O)OCC)c2nn1C` [Example 72, 2-Methyl-3-vaccenyloxy-7-ethoxycarbonylmethylthio-pyrazolo[4,3-d]pyrimidine], the inhibition in vivo at 300 mg/kg in data set [1] (setting [3]) came to 58%.

For `C=CCCCCCCCCCOc1c2ncnc(SCC(=O)OCC)c2nn1C` [Example 73, 2-Methyl-3-(10-undecenyloxy)-7-ethoxycarbonylmethylthio-pyrazolo[4,3-d]pyrimidine], in data set [1] (setting [3]), the inhibition in vivo at 300 mg/kg was 27%.

Consider `CCCCCCC#CCCOc1c2ncnc(SCC(=O)OCC)c2nn1C` [Example 74, 2-Methyl-3-(3-decynyloxy)-7-ethoxycarbonylmethylthio-pyrazolo[4,3-d]pyrimidine], for which, in data set [1] (setting [3]), the inhibition in vivo at 300 mg/kg worked out at 16%.
